Measured values published in patent US20090118331A1, “Use of Lobeline Epimers in the Treatment of Central Nervous System Diseases, Pathologies, and Drug Abuse” (priority 2007, published 2009).
“And” between values parts separate entries of the source, which are not always exact repeats. Identical values can stand only once.

How the values were obtained:
[1] = Pharmacokinetics of lobeline and epimer in human subjects after sublingual lobeline administration (7.5, 15, 30 mg); conditions: for CL/F (extravascular clearance): epimer
Text: The pharmacokinetics of lobeline and lobeline epimer were examined in eight human subjects (Sub) after sublingual lobeline administration.

clinical = conditions: human, in vivo
Protocol: Three consecutive doses of lobeline (either 30, 45 and 45 mg in the first study group, or 60, 60 and 60 mg in the second group) were administered to human volunteers at 0800, 1200 and 1600 over two full inpatient days. The pharmacokinetics of lobeline and epimer were then assessed in each subject. […] A crude index of accumulation (non-steady state) was obtained by dividing the sixth dose trough concentration by that observed for the fifth dose.

in vivo = conditions: rat, in vivo
Protocol: Here, serial doses of lobeline were administered to male and female rats intravenously, subcutaneously or orally, and the pharmacokinetic profiles of the parent lobeline and its epimer were monitored in plasma.

[2] = epimer in plasma, individual human subjects, sublingual lobeline 7.50 mg
[3] = epimer in plasma, individual human subjects, sublingual lobeline 15.0 mg
[4] = epimer in plasma, individual human subjects, sublingual lobeline 30.0 mg
[5] = individual human subjects, sublingual lobeline 7.50 mg
[6] = individual human subjects, sublingual lobeline 15.0 mg
[7] = individual human subjects, sublingual lobeline 30.0 mg

With `CN1[C@H](CC(=O)c2ccccc2)CCC[C@H]1C[C@H](O)c1ccccc1` (single isomer, unassigned; epimer 2) [Epimer, 2-[6S-(2S-hydroxy-2-phenyl-ethyl)-1-methyl-piperidin-2S-yl]-1-phenyl-ethanone] the “dose linearity of Cmax and CL/F” value ([1]; dose range from 7.5 to 30 mg, sublingual, human) was “Linear kinetics”, the “AUC(0-∞)” value [1, 2] was 11.92 ng·h/mL and the “AUCext (percent of AUC(0-∞) determined by extrapolation)” value [1, 2] was 40.22% and 37.47% and 21.02% and 13.37% and 29.10% and 11.02% and 21.05% and 22.14%. For the same compound, the “Tlast (time of last measurable plasma concentration)” value (“Tlast” below) [1, 2] was 2.00 hr and 3.00 hr (4×) and 6.00 hr and 12.00 hr and 4.00 hr, the “λz (terminal exponential rate constant)” value [1, 2] was 0.6868 h⁻¹ and 0.3858 h⁻¹ and 0.6119 h⁻¹ and 0.3882 h⁻¹ and 0.531 h⁻¹ and 0.2004 h⁻¹ and 0.6101 h⁻¹ and 0.489 h⁻¹ and the “AUC(0-∞)” value [1, 3] was 24.30 ng·h/mL. The “AUCext (percent of AUC(0-∞) determined by extrapolation)” value [1, 3] was 10.70% and 12.80% and 22.39% and 5.75% and 10.95% and 14.68% and 8.64% and 8.10%, the “Tlast” value [1, 3] was 4.17 hr and 4.00 hr (3×) and 8.00 hr and 11.00 hr and 4.03 hr and 6.00 hr and the “λz (terminal exponential rate constant)” value [1, 3] was 0.6055 h⁻¹ and 0.6196 h⁻¹ and 0.4338 h⁻¹ and 0.3591 h⁻¹ and 0.684 h⁻¹ and 0.1908 h⁻¹ and 0.7266 h⁻¹ and 0.5175 h⁻¹. The “AUC(0-t)” value [1, 4] was 83.89 ng·h/mL and 20.12 ng·h/mL and 87.17 ng·h/mL, the “AUCext (percent of AUC(0-∞) determined by extrapolation)” value [1, 4] was 3.89% and 10.44% and 5.56% and 15.37% and 11.12% and 3.26% and 7.85% and 5.01% and the “Tlast” value [1, 4] was 6.00 hr (2×) and 4.00 hr (3×) and 8.00 hr (2×) and 22.75 hr. The “λz (terminal exponential rate constant)” value [1, 4] was 0.6184 h⁻¹ and 0.6931 h⁻¹ and 0.5281 h⁻¹ and 0.25 h⁻¹ and 0.7194 h⁻¹ and 0.1513 h⁻¹ and 0.8194 h⁻¹ and 0.3741 h⁻¹, the “CL/F (extravascular clearance)” value [1, 5] was 282.7 mL/min/kg and 110.1 mL/min/kg and 240.7 mL/min/kg and 70.7 mL/min/kg and 159.2 mL/min/kg and 17.4 mL/min/kg and 225.5 mL/min/kg and 144.2 mL/min/kg and the “CL/F (extravascular clearance)” value [1, 6] was 188.2 mL/min/kg and 120.8 mL/min/kg and 161.7 mL/min/kg and 56.2 mL/min/kg and 175.6 mL/min/kg and 14.5 mL/min/kg and 180.2 mL/min/kg and 97.3 mL/min/kg. The “CL/F (extravascular clearance)” value [1, 7] was 153.7 mL/min/kg and 184.5 mL/min/kg and 146.9 mL/min/kg and 55.5 mL/min/kg and 285.9 mL/min/kg and 13.7 mL/min/kg and 259.4 mL/min/kg and 74.9 mL/min/kg, the “ratio of the cumulative amount of urinary epimer to lobeline” value ([1]; human subjects, sublingual lobeline) was “approximately 0.5” and the “Combined urinary excretion of lobeline and epimer” value ([1]; human, in vivo) was at most 0.5%. For the same compound, the AUC(0-inf) ([1]; human, in vivo, 7.5 mg, epimer in plasma, individual human subjects, sublingual lobeline 7.50 mg) was 13.2 ng·h/mL, the AUC(0-inf) ([1]; human, in vivo, 15 mg, epimer in plasma, individual human subjects, sublingual lobeline 15.0 mg) was 17.3 ng·h/mL and the AUC(0-inf) ([1]; human, in vivo, 30 mg, epimer in plasma, individual human subjects, sublingual lobeline 30.0 mg) was 91.8 ng·h/mL. For the same compound, the half-life ([1]; human, in vivo, 30 mg, Terminal exponential phase half-life (T1/2), average) was about 1.7 h, the half-life ([1]; human, in vivo, 30 mg, Terminal exponential phase half-lives (T1/2 values), range) was 1 to 5 h and the Tmax ([1]; human, in vivo, 30 mg, Tmax values, range) was 0.25 to 3 h. For the same compound, the Tmax ([1]; human, in vivo, 30 mg, Tmax, average) was 1.3 h, the half-life ([1]; human, in vivo, mean T1/2 values, human subjects, sublingual lobeline) was about 2 h and the “ratio of epimer to lobeline in plasma (Cmax and area under the curve; x to 1)” value ([1]; humans receiving sublingual lobeline 7.5, 15 and 30 mg) was 8-10 and 8 to 10. The “AUC(0-∞) Ratio (Epi/Lob)” value [1, 5] was 8.23 and 7.66 and 4.64 and 8.82 and 4.97 and 10.29 and 6.66 and 7.29, the “AUC(0-∞) Ratio (Epi/Lob)” value [1, 6] was 10.60 and 7.17 and 8.44 and 9.79 and 6.74 and 12.94 and 6.63 and 10.97 and the “AUC(0-∞) Ratio (Epi/Lob)” value [1, 7] was 11.77 and 6.33 and 8.63 and 10.30 and 6.07 and 11.84 and 9.02 and 11.44. The half-life (clinical) was 3.47 h, the “time at which geometric mean plasma concentration peaked” value (clinical) was 1.38 h and the AUC(0-inf) (in vivo; female, iv, 2 mg/kg) was 76.9 ng·h/mL. For the same compound, the AUC(0-t) (in vivo; female, iv, 2 mg/kg) was 75.4 ng·h/mL, the Cmax (in vivo; female, iv, 2 mg/kg) was 53.9 ng/mL and the MRT last (in vivo; female, iv, 2 mg/kg) was 1.6 h. The Tmax (in vivo; female, iv, 2 mg/kg) was 0.25 h, the Vd (in vivo; female, iv, 2 mg/kg) was 45.9 L/kg and the clearance (in vivo; female, iv, 2 mg/kg) was 0.433 mL/min/kg. For the same compound, the half-life (in vivo; female, iv, 2 mg/kg) was 1.47 h, the AUC(0-inf) (in vivo; female, po, 20 mg/kg) was 40.9 ng·h/mL and the AUC(0-t) (in vivo; female, po, 20 mg/kg) was 39.3 ng·h/mL. It also gave a Cmax (in vivo; female, po, 20 mg/kg) of 23.8 ng/mL, an MRT last (in vivo; female, po, 20 mg/kg) of 2.16 h and a Tmax (in vivo; female, po, 20 mg/kg) of 0.5 h. For the same compound, the half-life (in vivo; female, po, 20 mg/kg) was 1.71 h, the AUC(0-inf) (in vivo; female, sc, 3 mg/kg) was 128 ng·h/mL and the AUC(0-t) (in vivo; female, sc, 3 mg/kg) was 127 ng·h/mL. The Cmax (in vivo; female, sc, 3 mg/kg) was 85 ng/mL, the MRT last (in vivo; female, sc, 3 mg/kg) was 1.5 h and the Tmax (in vivo; female, sc, 3 mg/kg) was 0.5 h. For the same compound, the half-life (in vivo; female, sc, 3 mg/kg) was 1.11 h, the AUC(0-inf) (in vivo; male, iv, 2 mg/kg) was 69.7 ng·h/mL and the AUC(0-t) (in vivo; male, iv, 2 mg/kg) was 68.7 ng·h/mL. For the same compound, the Cmax (in vivo; male, iv, 2 mg/kg) was 47.6 ng/mL, the MRT last (in vivo; male, iv, 2 mg/kg) was 1.51 h and the Tmax (in vivo; male, iv, 2 mg/kg) was 0.25 h. The Vd (in vivo; male, iv, 2 mg/kg) was 46.3 L/kg, the clearance (in vivo; male, iv, 2 mg/kg) was 0.48 mL/min/kg and the half-life (in vivo; male, iv, 2 mg/kg) was 1.26 h. The AUC(0-inf) (in vivo; male, po, 20 mg/kg) was 54.8 ng·h/mL, the AUC(0-t) (in vivo; male, po, 20 mg/kg) was 54 ng·h/mL and the Cmax (in vivo; male, po, 20 mg/kg) was 49.8 ng/mL. For the same compound, the MRT last (in vivo; male, po, 20 mg/kg) was 1.73 h, the Tmax (in vivo; male, po, 20 mg/kg) was 0.5 h and the half-life (in vivo; male, po, 20 mg/kg) was 1.32 h.
